Test results: patent US9993493B2, “Composition for prevention, amelioration or treatment of metabolic syndrome” (HOUSE WELLNESS FOODS CORPORATION, priority 2010, dated 2018)

What was measured:
Assay type in all cases: in vivo, male KK mice
diet-induced obese mice [1] = experiment: Test Example 3: Oligonol and caffeine fed in low-calorie feed to diet-induced obese mice; conditions: vs control group, caffeine 0.025 mass %, Oligonol 0.1 mass %, mixture 0.1+0.025 mass %
Source text: As the polyphenol containing 15 mass % or more of proanthocyanidin having a polymerization degree of 1 to 3 and caffeine, “Oligonol (trade name)” (distributor: […] Five-week-old male KK mice were fed with water and a powder feed for breeding (CE-2 (trade name), made by CLEA Japan, Inc.) for one week, and then fed with the high-calorie feed (4.70 kcal/g) in Table 1 for 3 weeks for induction of obesity. […] The feeds given to the test groups are as follows. • (1) Control group; low-calorie feed • (2) Caffeine administration group; low-calorie feed+0.025 mass % of caffeine • (3) Oligonol administration group; low-calorie feed+0.1 mass % of Oligonol • (4) Present invention (mixture of Oligonol and caffeine (4:1)) administration group; low-calorie feed+(0.1 mass % of Oligonol+0.025 mass % of caffeine) During the test period (2 weeks from the start of low-calorie feeding), body weight and feed intake were periodically measured. After the end of the test, the mice were euthanized, and subcutaneous fat tissue, epididymal fat tissue, and mesenteric (visceral) fat tissue were removed and separately weighed. Also, at the start of the test period (the start of low-calorie feeding) and the end of the test period, plasma triglyceride level was measured. The changes in body weight before and after the test period is shown in FIG. 8, the feed intake during the first 10 days of the test period is shown in FIG. 9, the total weight of subcutaneous, epididymal, and mesenteric fat tissues per 100 g of body weight is shown in FIG. 10, and the changes in plasma triglyceride level before and after the test period is shown in FIG. 11. The results are shown as Mean±SD of each group.

diet-induced obese mice [2] = experiment: Test Example 2: glucosyl hesperidin and caffeine mixtures (10:1, 20:1, 40:1) fed in low-calorie feed to diet-induced obese mice; conditions: vs control group, caffeine 0.0125 mass %, glucosyl hesperidin 0.25 mass %; for weight of subcutaneous fat tissue / weight of mesenteric (visceral) fat tissue: 2 weeks low-calorie feed; for weight of subcutaneous fat tissue: FIG. 6; for weight of mesenteric (visceral) fat tissue: FIG. 7; for changes in body weight: before and after 2 weeks low-calorie feed, FIG. 4
Source text: Under the same conditions as in Test Example 1, the effect of the composition of the present invention comprising glucosyl hesperidin and caffeine was investigated. The glucosyl hesperidin and caffeine used here were the same as in Test Example 1.
Five-week-old male KK mice were fed with water and a powder feed for breeding (CE-2 (trade name), made by CLEA Japan, Inc.) for one week, and then fed with the high-calorie feed (4.70 kcal/g) in Table 1 for 3 weeks for induction of obesity. The mice were divided into 6 groups (a control group, a caffeine administration group, a glucosyl hesperidin administration group, and mixture of caffeine and glucosyl hesperidin (present invention) administration groups, 6 to 7 mice per group) and fed with the low-calorie feed (3.16 kcal/g) in Table 1 or the low-calorie feed supplemented with the corresponding test sample for 2 weeks, in expectation of using body fat. The feeds given to the test groups are as follows. • (1) Control group; low-calorie feed • (2) Caffeine administration group; low-calorie feed+0.0125 mass % of caffeine • (3) Glucosyl hesperidin administration group; low-calorie feed+0.25 mass % of glucosyl hesperidin • (4) Mixture of glucosyl hesperidin and caffeine (10:1) administration group; low-calorie feed+(0.25 mass % of glucosyl hesperidin+0.025 mass % of caffeine) • (5) Mixture of glucosyl hesperidin and caffeine (20:1) administration group; low-calorie feed+(0.25 mass % of glucosyl hesperidin+0.0125 mass % of caffeine) • (6) Mixture of glucosyl hesperidin and caffeine (40:1) administration group; low-calorie feed+(0.25 mass % of glucosyl hesperidin+0.00625 mass % of caffeine)
During the test period (2 weeks from the start of low-calorie feeding), body weight and feed intake were periodically measured. After the end of the test, the mice were euthanized, and subcutaneous fat tissue and mesenteric (visceral) fat tissue were removed and separately weighed.
(§1) The changes in body weight before and after the test period is shown in FIG. 4, the feed intake during the first 10 days of the test period is shown in FIG. 5, the weight of subcutaneous fat tissue per 100 g of body weight is shown in FIG. 6, and the weight of mesenteric fat tissue per 100 g of body weight is shown in FIG. 7. The results are shown as Mean±SD of each group. The $, **, and * in the figures indicate a significant difference with a risk less than 10%, a risk less than 1%, and a risk less than 5% from the control, respectively.

diet-induced obese mice [3] = experiment: Test Example 1: glucosyl hesperidin and caffeine fed in low-calorie feed to diet-induced obese mice; conditions: vs control group, caffeine 0.025 mass %, glucosyl hesperidin 0.25 mass %, mixture 0.25+0.025 mass %; for weight of mesenteric (visceral) fat tissue: 2 weeks low-calorie feed, FIG. 3; for changes in body weight: before and after 2 weeks low-calorie feed, FIG. 1
Source text: In such a situation, the effect of the composition of the present invention comprising glucosyl hesperidin and caffeine was investigated. As the glucosyl hesperidin and caffeine, “Hayashibara Hesperidin S (trade name)” (distributor: Hayashibara Co., Ltd.) and “Chanomoto (trade name)” (purity of caffeine: 98.5%, made by Shiratori Pharmaceutical Co., Ltd.) were used, respectively.
Five-week-old male KK mice were fed with water and a powder feed for breeding (CE-2 (trade name), made by CLEA Japan, Inc.) for one week, and then fed with the high-calorie feed (4.70 kcal/g) in Table 1 shown below for 3 weeks for induction of obesity. The mice were divided into 4 groups (a control group, a caffeine administration group, a glucosyl hesperidin administration group, and a present invention administration group (caffeine+glucosyl hesperidin), 5 to 8 mice per group) and fed with the low-calorie feed (3.16 kcal/g) in Table 1 shown below or the low-calorie feed supplemented with the corresponding test sample for 2 weeks, in expectation of using body fat. The feeds given to the test groups are as follows. • (1) Control group; low-calorie feed • (2) Caffeine administration group; low-calorie feed+0.025 mass % of caffeine • (3) Glucosyl hesperidin administration group; low-calorie feed+0.25 mass % of glucosyl hesperidin • (4) Present invention (mixture of glucosyl hesperidin and caffeine (10:1)) administration group; low-calorie feed+(0.25 mass % of glucosyl hesperidin+0.025 mass % of caffeine)
During the test period (2 weeks from the start of low-calorie feeding), body weight and feed intake were periodically measured. After the end of the test, the mice were euthanized, and mesenteric (visceral) fat tissue was removed and weighed.
as §1, with “1,” for “4,”, “2,” for “5, the weight of subcutaneous fat tissue per 100 g of body weight is shown in FIG. 6,”, “3.” for “7.”, “**” for “$, **,”, “1%” for “10%, a risk less than 1%,”

Row | Compound | total weight of fat tissues (subcutaneous, epididymal, and mesenteric) (diet-induced obese mice [1]; 2 weeks low-calorie feed, FIG. 10) | plasma triglyceride level measured on the 14th day (diet-induced obese mice [1]; 14th day of low-calorie feed, FIG. 11) | changes in body weight (diet-induced obese mice [1]; before and after 2 weeks low-calorie feed, FIG. 8) | weight of subcutaneous fat tissue (diet-induced obese mice [2]) | weight of mesenteric (visceral) fat tissue (diet-induced obese mice [2]) | changes in body weight (diet-induced obese mice [2]) | weight of mesenteric (visceral) fat tissue (diet-induced obese mice [3]) | changes in body weight (diet-induced obese mice [3])
1 | Cn1c(=O)c2c(ncn2C)n(C)c1=O [caffeine] | did not show any significant difference | did not show any significant difference | lower values | did not show any significant difference | did not show any significant difference | values equivalent to those of the control group | did not show any significant difference | significantly lower values
2 | glucosyl hesperidin | – | – | – | did not show any significant difference | did not show any significant difference | values equivalent to those of the control group | did not show any significant difference | equivalent values
